Data as given in BigSolDB 2.1.

CCOC(=O)Cc1c(C(=O)OCC)sc(N)c1C#N
solubility (mole fraction) (in acetone, 273.15 K): 0.0446
solubility (mole fraction) (in acetone, 278.15 K): 0.0499
solubility (mole fraction) (in acetone, 283.15 K): 0.0558
solubility (mole fraction) (in acetone, 288.15 K): 0.0628
solubility (mole fraction) (in acetone, 293.15 K): 0.071
solubility (mole fraction) (in acetone, 298.15 K): 0.0801
solubility (mole fraction) (in acetone, 303.15 K): 0.0902
solubility (mole fraction) (in acetone, 308.15 K): 0.101
solubility (mole fraction) (in acetone, 313.15 K): 0.113
solubility (mole fraction) (in acetone, 318.15 K): 0.126
solubility (mole fraction) (in acetonitrile, 273.15 K): 0.0082
solubility (mole fraction) (in acetonitrile, 278.15 K): 0.0102
solubility (mole fraction) (in acetonitrile, 283.15 K): 0.0125
solubility (mole fraction) (in acetonitrile, 288.15 K): 0.0151
solubility (mole fraction) (in acetonitrile, 293.15 K): 0.0185
solubility (mole fraction) (in acetonitrile, 298.15 K): 0.0225
solubility (mole fraction) (in acetonitrile, 303.15 K): 0.0268
solubility (mole fraction) (in acetonitrile, 308.15 K): 0.0323
solubility (mole fraction) (in acetonitrile, 313.15 K): 0.0385
solubility (mole fraction) (in acetonitrile, 318.15 K): 0.0455
solubility (mole fraction) (in ethanol, 273.15 K): 0.0031
solubility (mole fraction) (in ethanol, 278.15 K): 0.00399
solubility (mole fraction) (in ethanol, 283.15 K): 0.00505
solubility (mole fraction) (in ethanol, 288.15 K): 0.00637
solubility (mole fraction) (in ethanol, 293.15 K): 0.00798
solubility (mole fraction) (in ethanol, 298.15 K): 0.00998
solubility (mole fraction) (in ethanol, 303.15 K): 0.0123
solubility (mole fraction) (in ethanol, 308.15 K): 0.015
solubility (mole fraction) (in ethanol, 313.15 K): 0.0186
solubility (mole fraction) (in ethanol, 318.15 K): 0.0227
solubility (mole fraction) (in ethyl acetate, 273.15 K): 0.0237
solubility (mole fraction) (in ethyl acetate, 278.15 K): 0.0257
solubility (mole fraction) (in ethyl acetate, 283.15 K): 0.0286
solubility (mole fraction) (in ethyl acetate, 288.15 K): 0.0318
solubility (mole fraction) (in ethyl acetate, 293.15 K): 0.0349
solubility (mole fraction) (in ethyl acetate, 298.15 K): 0.0386
solubility (mole fraction) (in ethyl acetate, 303.15 K): 0.0427
solubility (mole fraction) (in ethyl acetate, 308.15 K): 0.0473
solubility (mole fraction) (in ethyl acetate, 313.15 K): 0.0519
solubility (mole fraction) (in ethyl acetate, 318.15 K): 0.0567
solubility (mole fraction) (in isopropanol, 273.15 K): 0.00232
solubility (mole fraction) (in isopropanol, 278.15 K): 0.00307
solubility (mole fraction) (in isopropanol, 283.15 K): 0.00396
solubility (mole fraction) (in isopropanol, 288.15 K): 0.00513
solubility (mole fraction) (in isopropanol, 293.15 K): 0.00656
solubility (mole fraction) (in isopropanol, 298.15 K): 0.00845
solubility (mole fraction) (in isopropanol, 303.15 K): 0.0107
solubility (mole fraction) (in isopropanol, 308.15 K): 0.0134
solubility (mole fraction) (in isopropanol, 313.15 K): 0.0168
solubility (mole fraction) (in isopropanol, 318.15 K): 0.0213
solubility (mole fraction) (in methanol, 273.15 K): 0.00483
solubility (mole fraction) (in methanol, 278.15 K): 0.00609
solubility (mole fraction) (in methanol, 283.15 K): 0.00759
solubility (mole fraction) (in methanol, 288.15 K): 0.00947
solubility (mole fraction) (in methanol, 293.15 K): 0.0118
solubility (mole fraction) (in methanol, 298.15 K): 0.0144
solubility (mole fraction) (in methanol, 303.15 K): 0.0176
solubility (mole fraction) (in methanol, 308.15 K): 0.0214
solubility (mole fraction) (in methanol, 313.15 K): 0.0261
solubility (mole fraction) (in methanol, 318.15 K): 0.0313
solubility (mole fraction) (in n-butanol, 273.15 K): 0.00204
solubility (mole fraction) (in n-butanol, 278.15 K): 0.00266
solubility (mole fraction) (in n-butanol, 283.15 K): 0.00343
solubility (mole fraction) (in n-butanol, 288.15 K): 0.00438
solubility (mole fraction) (in n-butanol, 293.15 K): 0.00559
solubility (mole fraction) (in n-butanol, 298.15 K): 0.0071
solubility (mole fraction) (in n-butanol, 303.15 K): 0.0091
solubility (mole fraction) (in n-butanol, 308.15 K): 0.0114
solubility (mole fraction) (in n-butanol, 313.15 K): 0.0144
solubility (mole fraction) (in n-butanol, 318.15 K): 0.0177
solubility (mole fraction) (in n-propanol, 273.15 K): 0.00217
solubility (mole fraction) (in n-propanol, 278.15 K): 0.00286
solubility (mole fraction) (in n-propanol, 283.15 K): 0.0036
solubility (mole fraction) (in n-propanol, 288.15 K): 0.00471
solubility (mole fraction) (in n-propanol, 293.15 K): 0.00618
solubility (mole fraction) (in n-propanol, 298.15 K): 0.00763
solubility (mole fraction) (in n-propanol, 303.15 K): 0.00961
solubility (mole fraction) (in n-propanol, 308.15 K): 0.012
solubility (mole fraction) (in n-propanol, 313.15 K): 0.0151
solubility (mole fraction) (in n-propanol, 318.15 K): 0.0188
solubility (mole fraction) (in toluene, 273.15 K): 0.000402
solubility (mole fraction) (in toluene, 278.15 K): 0.00052
solubility (mole fraction) (in toluene, 283.15 K): 0.000664
solubility (mole fraction) (in toluene, 288.15 K): 0.000858
solubility (mole fraction) (in toluene, 293.15 K): 0.00109
solubility (mole fraction) (in toluene, 298.15 K): 0.00139
solubility (mole fraction) (in toluene, 303.15 K): 0.00171
solubility (mole fraction) (in toluene, 308.15 K): 0.00215
solubility (mole fraction) (in toluene, 313.15 K): 0.00265
solubility (mole fraction) (in toluene, 318.15 K): 0.00323
